Reference: patent US12653860B2, “Compositions and methods for editing beta-globin for treatment of hemaglobinopathies” (Vertex Pharmaceuticals Incorporated, priority 2019, dated 2026)

Experiments:
[1] = test system: GFP gene encoded in the AAVS1 locus of HEK293 T cells; assay: GFP to BFP reporter assay of HDR repair (BFP fluorescence); assay type: cell-based; conditions: four ssODNs
Protocol: The effect of DNA PK inhibition by Nu7441 correction of a DSB by the NHEJ pathway (e.g., introduce an indel at the DSB site) or HDR pathway (e.g., introduce a gene mutation encoded by a homology donor at the DSB site) was assessed using the reporter system described in Example 1. In this case gene-editing was evaluated in HEK293 T cells expressing GFP in the AAVS1 locus. To introduce a gene edit that converts GFP to BFP, cells were electroporated with ribonucleoprotein (RNP) comprised of Cas9 and gRNA1 (GFP target sequence identified by SEQ ID NO: 9; sgRNA spacer sequence identified by SEQ ID NO: 10) or gRNA2 (GFP target sequence identified by SEQ ID NO: 11; sgRNA spacer identified by SEQ ID NO: 12) that targets the GFP gene encoded in the AAVS1 locus. The cells were also transfected with ssODNs that encoded the gene correction necessary to convert GFP to BFP and homology arms complimentary to the sequence upstream and downstream of the target gene cut site. The efficiency of HDR repair was determined by measuring the level of cell BFP fluorescence. The efficiency of cutting (indel information) was monitored by TIDE analysis.
Shown in FIGS. 2A-2B is a comparison of HDR editing efficiency for cells treated with Nu7441, SCR7, or RS-1. Shown in FIG. 2A are cells were electroporated with RNP comprising Cas9 and gRNA1 (GFP target sequence shown in SEQ ID NO: 9; sgRNA spacer sequence identified by SEQ ID NO: 10). 2×10^5 cells were edited with 1 μM Cas9 and 1.5 μM gRNA1. The cells were transfected with four different ssODNs. These included ssODN 1067 (SEQ ID NO: 29) and ssODN 1069 (SEQ ID NO: 31) that are complimentary to the DNA strand containing the PAM sequence and ssODN 1068 (SEQ ID NO: 30) and ssODN 1070 (SEQ ID NO: 32) that are complimentary to the DNA strand not containing the PAM sequence. Cells were edited with 100 μM ssODN. A concentrated stock solution of each inhibitor was prepared in DMSO and diluted to a final concentration of 2.5 μM Nu7441, 1.25 μM SCR7, or 10 μM RS-1. HDR efficiency was compared relative to treatment with DMSO alone or to treatment with RNP-only.
Shown in FIG. 2B are cells were electroporated with RNP comprising Cas9 and gRNA2 (GFP target sequence shown in SEQ ID NO: 11; sgRNA spacer sequence shown in SEQ ID NO: 12). The cells were transfected with four different ssODNs. These included ssODN 1061 (SEQ ID NO: 33) and ssODN 1063 (SEQ ID NO: 35) that are complimentary to the DNA strand containing the PAM sequence and ssODN 1062 (SEQ ID NO: 34) and ssODN 1064 (SEQ ID NO: 36) that are complimentary to the DNA strand not containing the PAM sequence.

[2] = test system: GSD1a locus in HEK293 T cells; assay: Gene correction by NHEJ repair at GSD1a locus with dsDNA donors; assay type: cell-based; conditions: dsDNA donors 50-0 or 150-0; 2.5 μM Nu7441, 1.25 μM SCR7 or 10 μM RS-1; vs DMSO alone; FIG. 3
Protocol: The effect of Nu7441 treatment on gene correction by the NHEJ pathway was also evaluated. To do so, the cells were transfected with two different dsDNA donors: 50-0 (SEQ ID NO: 37) or 150-0 (SEQ ID NO: 38). Cells were edited with 1.5 g dsDNA donor. These dsDNA donors, lacking homology arms, introduce a second 3′ splice site into exon 2 at the GSD1a locus when inserted into the cut site induced by the Cas9-guide complex by NHEJ repair. The cells were treated with 2.5 μM Nu7441, 1.25 μM SCR7, or 10 μM RS-1 and gene correction by NHEJ repair was evaluated. […] Treatment with SCR7 or RS-1 had no effect over DMSO alone.

[3] = gRNA1, 2.5 μM Nu7441, 1.25 μM SCR7 or 10 μM RS-1, vs DMSO alone, FIG. 2A

| Compound | HDR efficiency [1, 3] | HDR efficiency ([1]; gRNA2, 2.5 μM Nu7441) | gene correction by NHEJ repair [2] |
| --- | --- | --- | --- |
| O=c1cc(N2CCOCC2)oc2c(-c3cccc4c3sc3ccccc34)cccc12 [Nu7441] | improved HDR efficiency | improved HDR efficiency | substantial decrease in gene correction |
| O=C(Nc1ccc(Br)cc1)c1ccc(Br)c(S(=O)(=O)NCc2ccccc2)c1 [RS-1] | no improvement in HDR efficiency |  | no effect |
| O=c1[nH]c(=S)[nH]c(N=Cc2ccccc2)c1N=Cc1ccccc1 [SCR7] | no improvement in HDR efficiency |  | no effect |
